Patent publication US9216991B2 (Ares Trading S.A., priority 2012, dated 2015)
Where a name gives a salt, the structure may show the parent alone.

Target: T1, IRAK4 (Homo sapiens, UniProt Q9NWZ3)
T1 construct: His (N); TEV cleavage site (N)
T1 sequence (Q9NWZ3 1-460): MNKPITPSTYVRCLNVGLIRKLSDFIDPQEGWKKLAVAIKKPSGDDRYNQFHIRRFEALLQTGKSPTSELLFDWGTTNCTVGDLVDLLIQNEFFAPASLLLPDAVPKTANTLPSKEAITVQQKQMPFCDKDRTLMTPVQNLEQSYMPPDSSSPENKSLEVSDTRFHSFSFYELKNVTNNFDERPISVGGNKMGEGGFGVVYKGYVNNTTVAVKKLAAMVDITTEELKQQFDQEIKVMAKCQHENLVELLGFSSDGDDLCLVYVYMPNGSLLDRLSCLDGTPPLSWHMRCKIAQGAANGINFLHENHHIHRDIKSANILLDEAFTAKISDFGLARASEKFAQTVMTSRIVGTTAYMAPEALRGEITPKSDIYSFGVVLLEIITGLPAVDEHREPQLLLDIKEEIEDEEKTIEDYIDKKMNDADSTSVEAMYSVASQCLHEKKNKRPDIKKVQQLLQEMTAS
Assay: IRAK4 Enzymatic Assay
Type: biochemical
Conditions: His-TEV-IRAK4 20 ng/well, ATP 2 μM, STK1-biotin peptide 300 nM, 3 hours at 30° C., FlashPlate radioactivity
Method: IRAK4 is a human purified recombinant enzyme (His-TEV-IRAK1 (194-712)
IRAK4 hydrolyses ATP, autophosphorylates and phosphorylates a Serine/Threonine generic peptidic substrate (STK: 61ST1BLC from CisBio International based in Bagnols/Cèze FR).
Measurement of IRAK-4 inhibition is performed in streptavidin coated 384 well FlashPlate (PerkinElmer #SMP410A). His-TEV-IRAK4 (20 ng/well), ATP (2 μM, [^33P]ATP 0.25 μCi/well), STK1-biotin peptide (300 nM) and compounds in DMSO (range of concentrations from 20 μM to 1nM) or controls (2% DMSO) are incubated for 3 hours at 30° C. in assay buffer: Hepes pH7.0 50 mM, Fatty acid-free BSA 0.1%, Dithiothreitol DTT 2 mM, MgCl2 10 mM, EGTA 0.5 mM, Tween-20 0.01%, MnCl2 5 mM.
Kinase reaction is stopped by addition of EDTA. Supernatant is discarded, plates are washed three times with 150 mM NaCl and radioactivity is then measured in a Microbeta Trilux reader.

SMILES	IC50
CN(C)CCn1cc(-c2cnc(-c3cccc(-c4cnn(C)c4)c3)nc2)cn1 [Example 11, Dimethyl-[2-(4-{2-[3-(1-methyl-1H-pyrazol-4-yl)-phenyl]-pyrimidin-5-yl}-pyrazol-1-yl)-ethyl]-amine]	1000 to 5000 nM
Cn1cc(-c2cccc(-c3ncc(-c4cnn(C5CCOC5)c4)cn3)c2)cn1 (stereo not drawn) [Example 12, 2-[3-(1-Methyl-1H-pyrazol-4-yl)-phenyl]-5-[1-(tetrahydro-furan-3-yl)-1H-pyrazol-4-yl]-pyrimidine]	100 to 1000 nM
c1cc(-c2cnoc2)cc(-c2ncc(-c3cnn(C4CCNCC4)c3)cn2)c1 [Example 13, 2-(3-Isoxazol-4-yl-phenyl)-5-(1-piperidin-4-yl-1H-pyrazol-4-yl)-pyrimidine hydrochloride]	100 to 1000 nM
Cc1nn(C)cc1-c1cccc(-c2ncc(-c3cnn(C4CCNCC4)c3)cn2)c1 [Example 14, 2-[3-(1,3-Dimethyl-1H-pyrazol-4-yl)-phenyl]-5-(1-piperidin-4-yl-1H-pyrazol-4-yl)-pyrimidine hydrochloride]	1000 to 5000 nM
Cc1c(-c2cccc(-c3ncc(-c4cnn(C5CCNCC5)c4)cn3)c2)cnn1C [Example 15, 2-[3-(1,5-Dimethyl-1H-pyrazol-4-yl)-phenyl]-5-(1-piperidin-4-yl-1H-pyrazol-4-yl)-pyrimidine hydrochloride]	100 to 1000 nM
FCC(CF)n1cc(-c2cccc(-c3ncc(-c4cnn(C5CCNCC5)c4)cn3)c2)cn1 [Example 16, 2-{3-[1-(2-Fluoro-1-fluoromethyl-ethyl)-1H-pyrazol-4-yl]-phenyl}-5-(1-piperidin-4-yl-1H-pyrazol-4-yl)-pyrimidine hydrochloride]	100 to 1000 nM
O=C(Cn1cc(-c2cccc(-c3ncc(-c4cnn(C5CCNCC5)c4)cn3)c2)cn1)N1CCCC1 [Example 17, 2-(4-{3-[5-(1-Piperidin-4-yl-1H-pyrazol-4-yl)-pyrimidin-2-yl]-phenyl}-pyrazol-1-yl)-1-pyrrolidin-1-yl-ethanone hydrochloride]	1000 to 5000 nM
c1cc(-c2cn[nH]c2)cc(-c2ncc(-c3cnn(C4CCNCC4)c3)cn2)c1 [Example 18, 5-(1-Piperidin-4-yl-1H-pyrazol-4-yl)-2-[3-(1H-pyrazol-4-yl)-phenyl]-pyrimidine hydrochloride]	< 100 nM
CCCn1cc(-c2cccc(-c3ncc(-c4cnn(C5CCNCC5)c4)cn3)c2)cn1 [Example 19, 5-(1-Piperidin-4-yl-1H-pyrazol-4-yl)-2-[3-(1-propyl-1H-pyrazol-4-yl)-phenyl]-pyrimidine hydrochloride]	100 to 1000 nM
CC(C)n1cc(-c2cccc(-c3ncc(-c4cnn(C5CCNCC5)c4)cn3)c2)cn1 [Example 20, 2-[3-(1-Isopropyl-1H-pyrazol-4-yl)-phenyl]-5-(1-piperidin-4-yl-1H-pyrazol-4-yl)-pyrimidine hydrochloride]	100 to 1000 nM
c1ccc(Cn2cc(-c3cccc(-c4ncc(-c5cnn(C6CCNCC6)c5)cn4)c3)cn2)cc1 [Example 21, 2-[3-(1-Benzyl-1H-pyrazol-4-yl)-phenyl]-5-(1-piperidin-4-yl-1H-pyrazol-4-yl)-pyrimidine hydrochloride]	100 to 1000 nM
Cn1cc(-c2cccc(-c3ncc(-c4cnn(Cc5cccnc5)c4)cn3)c2)cn1 [Example 22, 2-[3-(1-Methyl-1H-pyrazol-4-yl)-phenyl]-5-(1-pyridin-3-ylmethyl-1H-pyrazol-4-yl)-pyrimidine]	100 to 1000 nM
Cn1cc(-c2cc(F)cc(-c3ncc(-c4cnn(C5CCNCC5)c4)cn3)c2)cn1 [Example 24, 2-[3-Fluoro-5-(1-methyl-1H-pyrazol-4-yl)-phenyl]-5-(1-piperidin-4-yl-1H-pyrazol-4-yl)-pyrimidine hydrochloride]	100 to 1000 nM
Cn1cc(-c2cccc(-c3ncc(-c4cnn(CC(=O)N5CCCCC5)c4)cn3)c2)cn1 [Example 25, 2-(4-{2-[3-(1-Methyl-1H-pyrazol-4-yl)-phenyl]-pyrimidin-5-yl}-pyrazol-1-yl)-1-piperidin-1-yl-ethanone]	1000 to 5000 nM
Cn1cc(-c2cccc(-c3ncc(-c4cnn(C5CNC5)c4)cn3)c2)cn1 [Example 26, 5-(1-Azetidin-3-yl-1H-pyrazol-4-yl)-2-[3-(1-methyl-1H-pyrazol-4-yl)-phenyl]-pyrimidine hydrochloride]	1000 to 5000 nM
COCCCn1cc(-c2cnc(-c3cccc(-c4cnn(C)c4)c3)nc2)cn1 [Example 27, 5-[1-(3-Methoxy-propyl)-1H-pyrazol-4-yl]-2-[3-(1-methyl-1H-pyrazol-4-yl)-phenyl]-pyrimidine]	100 to 1000 nM
Cn1cc(-c2cccc(-c3ncc(-c4cnn(C5CCN(C6COC6)CC5)c4)cn3)c2)cn1 [Example 28, 2-[3-(1-Methyl-1H-pyrazol-4-yl)-phenyl]-5-[1-(1-oxetan-3-yl-piperidin-4-yl)-1H-pyrazol-4-yl]-pyrimidine]	100 to 1000 nM
Cn1cc(-c2cccc(-c3ncc(-c4cnn(CC5CCNCC5)c4)cn3)c2)cn1 [Example 29, 2-[3-(1-Methyl-1H-pyrazol-4-yl)-phenyl]-5-(1-piperidin-4-ylmethyl-1H-pyrazol-4-yl)-pyrimidine hydrochloride]	1000 to 5000 nM
Cn1cc(-c2cccc(-c3ncc(-c4cnn(C5CCNCC5F)c4)cn3)c2)cn1 (stereo not drawn) [Example 30, trans-5-[1-(3-Fluoro-piperidin-4-yl)-1H-pyrazol-4-yl]-2-[3-(1-methyl-1H-pyrazol-4-yl)-phenyl]-pyrimidine hydrochloride]	100 to 1000 nM
Cn1cc(-c2cccc(-c3ncc(-c4cnn(C5CCN(CC(O)C(F)(F)F)CC5)c4)cn3)c2)cn1 (stereo not drawn) [Example 31, 1,1,1-Trifluoro-3-[4-(4-{2-[3-(1-methyl-1H-pyrazol-4-yl)-phenyl]-pyrimidin-5-yl}-pyrazol-1-yl)-piperidin-1-yl]-propan-2-ol]	100 to 1000 nM
c1cc(-c2ccncc2)cc(-c2ncc(-c3cnn(C4CCNCC4)c3)cn2)c1 [Example 33, 5-(1-Piperidin-4-yl-1H-pyrazol-4-yl)-2-(3-pyridin-4-yl-phenyl)-pyrimidine hydrochloride]	100 to 1000 nM
Cn1cc(-c2cc(O)cc(-c3ncc(-c4cnn(C5CCNCC5)c4)cn3)c2)cn1 [Example 34, 3-(1-Methyl-1H-pyrazol-4-yl)-5-[5-(1-piperidin-4-yl-1H-pyrazol-4-yl)-pyrimidin-2-yl]-phenol Formate]	100 to 1000 nM
COCC(O)Cn1cc(-c2cnc(-c3cccc(-c4cnn(C)c4)c3)nc2)cn1 (stereo not drawn) [Example 35, 1-Methoxy-3-(4-{2-[3-(1-methyl-1H-pyrazol-4-yl)-phenyl]-pyrimidin-5-yl}-pyrazol-1-yl)-propan-2-ol]	1000 to 5000 nM
Cn1cc(-c2cccc(-c3ncc(-c4cnn(CC(=O)N5CCOCC5)c4)cn3)c2)cn1 [Example 36, 2-(4-{2-[3-(1-Methyl-1H-pyrazol-4-yl)-phenyl]-pyrimidin-5-yl}-pyrazol-1-yl)-1-morpholin-4-yl-ethanone]	100 to 1000 nM
Cn1cncc1-c1cccc(-c2ncc(-c3cnn(CC(=O)N4CCCC4)c3)cn2)c1 [Example 37, 2-(4-{2-[3-(3-Methyl-3H-imidazol-4-yl)-phenyl]-pyrimidin-5-yl}-pyrazol-1-yl)-1-pyrrolidin-1-yl-ethanone]	1000 to 5000 nM
CN(C)C(=O)Cn1cc(-c2cnc(-c3cccc(-c4cnn(C)c4)c3)nc2)cn1 [Example 38, N,N-Dimethyl-2-(4-{2-[3-(1-methyl-1H-pyrazol-4-yl)-phenyl]-pyrimidin-5-yl}-pyrazol-1-yl)-acetamide]	100 to 1000 nM
Cn1cc(-c2cccc(-c3ncc(-c4cnn(C5CCN(C6CCOCC6)CC5)c4)cn3)c2)cn1 [Example 39, 2-[3-(1-Methyl-1H-pyrazol-4-yl)-phenyl]-5-{1-[1-(tetrahydro-pyran-4-yl)-piperidin-4-yl]-1H-pyrazol-4-yl}-pyrimidine]	< 100 nM
COC1CN(C(=O)Cn2cc(-c3cnc(-c4cccc(-c5cnn(C)c5)c4)nc3)cn2)C1 [Example 40, 1-(3-Methoxy-azetidin-1-yl)-2-(4-{2-[3-(1-methyl-1H-pyrazol-4-yl)-phenyl]-pyrimidin-5-yl}-pyrazol-1-yl)-ethanone]	100 to 1000 nM
Cn1cc(-c2cccc(-c3ncc(-c4cnn(CC5CNCCO5)c4)cn3)c2)cn1 (stereo not drawn) [Example 41, 2-(4-{2-[3-(1-Methyl-1H-pyrazol-4-yl)-phenyl]-pyrimidin-5-yl}-pyrazol-1-ylmethyl)-morpholine hydrochloride]	100 to 1000 nM
NCCCn1cc(-c2cccc(-c3ncc(-c4cnn(CC(=O)N5CCCC5)c4)cn3)c2)cn1 [Example 42, 2-[4-(2-{3-[1-(3-Amino-propyl)-1H-pyrazol-4-yl]-phenyl}-pyrimidin-5-yl)-pyrazol-1-yl]-1-pyrrolidin-1-yl-ethanone hydrochloride]	1000 to 5000 nM
